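The compound was tested at five concentrations on cells cultured in 96-well plates, with a 48-hour exposure period. GI50 marks 50% less growth.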 Calls of active or inactive are those of the source. No stated cut-off is given here; in the data, active = GI50 up to about 1.1 µM and inactive = higher.
Experiments:
Assay in all cases: NCI-60 cell line screen, 48 h
A498 = system: A498
A549 = system: A549
T47D = system: T47D
LOX IMVI = system: LOX IMVI
NCI-H460 = system: NCI-H460
MDA-MB-435 = system: MDA-MB-435
OVCAR-3 = system: OVCAR-3
M14 = system: M14
SK-MEL-28 = system: SK-MEL-28
ACHN = system: ACHN
HOP-62 = system: HOP-62
COLO 205 = system: COLO 205
MCF7 = system: MCF7
DU-145 = system: DU-145
EKVX = system: EKVX
K562 = system: K562
Malme-3M = system: Malme-3M
SK-MEL-2 = system: SK-MEL-2
HOP-92 = system: HOP-92
CAKI-1 = system: CAKI-1
SK-MEL-5 = system: SK-MEL-5
BT-549 = system: BT-549
PC-3 = system: PC-3
OVCAR-8 = system: OVCAR-8
MDA-N = system: MDA-N
UACC-62 = system: UACC-62
SF-295 = system: SF-295
KM12 = system: KM12
RPMI-8226 = system: RPMI-8226
IGROV-1 = system: IGROV-1
NCI/ADR-RES = system: NCI/ADR-RES
HCT-116 = system: HCT-116
NCI-H226 = system: NCI-H226
786-0 = system: 786-0
OVCAR-5 = system: OVCAR-5
MOLT-4 = system: MOLT-4
SN12C = system: SN12C
CCRF-CEM = system: CCRF-CEM
MDA-MB-231 = system: MDA-MB-231
SNB-75 = system: SNB-75
NCI-H23 = system: NCI-H23
Hs-578T = system: Hs-578T
SF-268 = system: SF-268
SK-OV-3 = system: SK-OV-3
UO-31 = system: UO-31
RXF 393 = system: RXF 393
HCT-15 = system: HCT-15
NCI-H522 = system: NCI-H522
SW-620 = system: SW-620
TK-10 = system: TK-10
SR = system: SR
SF-539 = system: SF-539
SNB-19 = system: SNB-19
U-251 = system: U-251
HT-29 = system: HT-29
OVCAR-4 = system: OVCAR-4
HL-60 = system: HL-60
UACC-257 = system: UACC-257
HCC 2998 = system: HCC 2998

c1ccc(CN2CCC(CNc3ncnc4ccccc34)C2)cc1 (stereo not given)
GI50 (A498): 41.3 µM (inactive)
GI50 (A549): > 100 µM (inactive)
GI50 (T47D): 93.5 µM (inactive)
GI50 (LOX IMVI): 45.3 µM (inactive)
GI50 (NCI-H460): 44.3 µM (inactive)
GI50 (MDA-MB-435): 45 µM (inactive)
GI50 (OVCAR-3): > 100 µM (inactive)
GI50 (M14): 17.3 µM (inactive)
GI50 (SK-MEL-28): 25.9 µM (inactive)
GI50 (ACHN): > 100 µM (inactive)
GI50 (HOP-62): > 100 µM (inactive)
GI50 (COLO 205): 29.5 µM (inactive)
GI50 (MCF7): 50.2 µM (inactive)
GI50 (DU-145): > 100 µM (inactive)
GI50 (EKVX): 25.1 µM (inactive)
GI50 (K562): 23 µM (inactive)
GI50 (Malme-3M): 19.5 µM (inactive)
GI50 (SK-MEL-2): 38.6 µM (inactive)
GI50 (HOP-92): 34.8 µM (inactive)
GI50 (CAKI-1): > 100 µM (inactive)
GI50 (SK-MEL-5): 21.2 µM (inactive)
GI50 (BT-549): > 100 µM (inactive)
GI50 (PC-3): 95.3 µM (inactive)
GI50 (OVCAR-8): 83 µM (inactive)
GI50 (MDA-N): 47.1 µM (inactive)
GI50 (UACC-62): > 100 µM (inactive)
GI50 (SF-295): 51.4 µM (inactive)
GI50 (KM12): > 100 µM (inactive)
GI50 (RPMI-8226): 9.02 µM (inactive)
GI50 (IGROV-1): > 100 µM (inactive)
GI50 (NCI/ADR-RES): 61.9 µM (inactive)
GI50 (HCT-116): 40.5 µM (inactive)
GI50 (NCI-H226): 76.9 µM (inactive)
GI50 (786-0): > 100 µM (inactive)
GI50 (OVCAR-5): > 100 µM (inactive)
GI50 (MOLT-4): 34.4 µM (inactive)
GI50 (SN12C): 98.6 µM (inactive)
GI50 (CCRF-CEM): 41 µM (inactive)
GI50 (MDA-MB-231): > 100 µM (inactive)
GI50 (SNB-75): > 100 µM (inactive)
GI50 (NCI-H23): 40.3 µM (inactive)
GI50 (Hs-578T): 58.5 µM (inactive)
GI50 (SF-268): 51.5 µM (inactive)
GI50 (SK-OV-3): > 100 µM (inactive)
GI50 (UO-31): 63.1 µM (inactive)
GI50 (RXF 393): > 100 µM (inactive)
GI50 (HCT-15): > 100 µM
GI50 (NCI-H522): 23 µM (inactive)
GI50 (SW-620): > 100 µM (inactive)
GI50 (TK-10): 44.5 µM (inactive)
GI50 (SR): 17.2 µM (inactive)
GI50 (SF-539): 68.5 µM (inactive)
GI50 (SNB-19): > 100 µM (inactive)
GI50 (U-251): 76.9 µM (inactive)
GI50 (HT-29): 33.1 µM (inactive)
GI50 (OVCAR-4): 35.8 µM (inactive)
GI50 (HL-60): 25.8 µM (inactive)

FC1(F)SC2CCCCCCCCCCC2C1(F)F (stereo not given)
GI50 (A549): 35 µM (inactive)
GI50 (T47D): 30.9 µM (inactive)
GI50 (LOX IMVI): 16.4 µM (inactive)
GI50 (MDA-MB-435): 28.3 µM (inactive)
GI50 (OVCAR-3): 18.5 µM (inactive)
GI50 (M14): 39.7 µM (inactive)
GI50 (SK-MEL-28): 18.5 µM (inactive)
GI50 (ACHN): 25.3 µM (inactive)
GI50 (HOP-62): 38.6 µM (inactive)
GI50 (COLO 205): 18.6 µM (inactive)
GI50 (MCF7): 20.2 µM (inactive)
GI50 (DU-145): 31.1 µM (inactive)
GI50 (EKVX): 35.5 µM (inactive)
GI50 (K562): 15.3 µM (inactive)
GI50 (Malme-3M): 21.8 µM (inactive)
GI50 (SK-MEL-2): 18.2 µM (inactive)
GI50 (HOP-92): 19.1 µM (inactive)
GI50 (CAKI-1): 59.6 µM (inactive)
GI50 (SK-MEL-5): 32.9 µM (inactive)
GI50 (BT-549): 44 µM (inactive)
GI50 (PC-3): 42.6 µM (inactive)
GI50 (UACC-257): 20.5 µM (inactive)
GI50 (OVCAR-8): 40.9 µM (inactive)
GI50 (MDA-N): 37.6 µM (inactive)
GI50 (UACC-62): 33.9 µM (inactive)
GI50 (SF-295): 28.6 µM (inactive)
GI50 (RPMI-8226): 59.7 µM (inactive)
GI50 (IGROV-1): 76 µM (inactive)
GI50 (NCI/ADR-RES): 63.4 µM (inactive)
GI50 (HCT-116): 18.4 µM (inactive)
GI50 (NCI-H226): 33.3 µM (inactive)
GI50 (786-0): 56.4 µM (inactive)
GI50 (OVCAR-5): 47.5 µM (inactive)
GI50 (MOLT-4): 28.2 µM (inactive)
GI50 (CCRF-CEM): 19.2 µM (inactive)
GI50 (MDA-MB-231): 22.8 µM (inactive)
GI50 (SNB-75): 30.6 µM (inactive)
GI50 (NCI-H23): 23.8 µM (inactive)
GI50 (Hs-578T): 36.1 µM (inactive)
GI50 (SF-268): 29.2 µM (inactive)
GI50 (SK-OV-3): 61.7 µM (inactive)
GI50 (UO-31): 78.2 µM (inactive)
GI50 (RXF 393): 20.7 µM (inactive)
GI50 (HCT-15): 42.5 µM
GI50 (NCI-H522): 21.8 µM (inactive)
GI50 (TK-10): 56.2 µM (inactive)
GI50 (SR): 67.5 µM (inactive)
GI50 (SNB-19): > 100 µM (inactive)
GI50 (U-251): 28.5 µM (inactive)
GI50 (HT-29): 29.7 µM (inactive)
GI50 (OVCAR-4): 22.1 µM (inactive)
GI50 (HL-60): 15.4 µM (inactive)

COC(=O)[C@@]12CN(C)[C@@H](C(C)(C)C)N1C(=O)OC2c1ccccc1 (stereo not given in full)
GI50 (A549): > 100 µM (inactive)
GI50 (T47D): > 100 µM (inactive)
GI50 (LOX IMVI): > 100 µM (inactive)
GI50 (NCI-H460): > 100 µM (inactive)
GI50 (MDA-MB-435): > 100 µM (inactive)
GI50 (HCC 2998): > 100 µM (inactive)
GI50 (OVCAR-3): > 100 µM (inactive)
GI50 (M14): > 100 µM (inactive)
GI50 (SK-MEL-28): > 100 µM (inactive)
GI50 (ACHN): > 100 µM (inactive)
GI50 (HOP-62): > 100 µM (inactive)
GI50 (COLO 205): > 100 µM (inactive)
GI50 (MCF7): > 100 µM (inactive)
GI50 (DU-145): > 100 µM (inactive)
GI50 (EKVX): > 100 µM (inactive)
GI50 (K562): > 100 µM (inactive)
GI50 (Malme-3M): > 100 µM (inactive)
GI50 (HOP-92): > 100 µM (inactive)
GI50 (CAKI-1): > 100 µM (inactive)
GI50 (SK-MEL-5): > 100 µM (inactive)
GI50 (BT-549): > 100 µM (inactive)
GI50 (PC-3): > 100 µM (inactive)
GI50 (UACC-257): > 100 µM (inactive)
GI50 (OVCAR-8): > 100 µM (inactive)
GI50 (MDA-N): > 100 µM (inactive)
GI50 (UACC-62): > 100 µM (inactive)
GI50 (SF-295): > 100 µM (inactive)
GI50 (KM12): > 100 µM (inactive)
GI50 (RPMI-8226): > 100 µM (inactive)
GI50 (IGROV-1): > 100 µM (inactive)
GI50 (NCI/ADR-RES): > 100 µM (inactive)
GI50 (NCI-H226): > 100 µM (inactive)
GI50 (786-0): > 100 µM (inactive)
GI50 (OVCAR-5): > 100 µM (inactive)
GI50 (MOLT-4): > 100 µM (inactive)
GI50 (SN12C): > 100 µM (inactive)
GI50 (CCRF-CEM): > 100 µM (inactive)
GI50 (MDA-MB-231): > 100 µM (inactive)
GI50 (SNB-75): > 100 µM (inactive)
GI50 (NCI-H23): > 100 µM (inactive)
GI50 (Hs-578T): > 100 µM (inactive)
GI50 (SF-268): > 100 µM (inactive)
GI50 (SK-OV-3): > 100 µM (inactive)
GI50 (UO-31): > 100 µM (inactive)
GI50 (RXF 393): > 100 µM (inactive)
GI50 (HCT-15): > 100 µM
GI50 (NCI-H522): > 100 µM (inactive)
GI50 (SW-620): > 100 µM (inactive)
GI50 (TK-10): > 100 µM (inactive)
GI50 (SR): > 100 µM (inactive)
GI50 (SF-539): > 100 µM (inactive)
GI50 (SNB-19): > 100 µM (inactive)
GI50 (U-251): > 100 µM (inactive)
GI50 (HT-29): > 100 µM (inactive)
GI50 (OVCAR-4): > 100 µM (inactive)
GI50 (HL-60): > 100 µM (inactive)
